Like-named read-outs stand apart in the source and are kept apart here.
How the values were obtained:
human DGKα = human DGKα (Homo sapiens (Human), UniProt P23743); experiment: biochemical; conditions: detergent/lipid micelle substrate; read-out: DGKα IC50
Summary of the method: (§1)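 Enzymes were baculovirus/Sf9 full-length human DGKα or DGKζ with His tag. The substrate was PS/DAG in octyl glucoside micelles, in MOPS pH 7.5 buffer with NaCl, MgCl2, CaCl2 and DTT.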

[1] = system: pre-activated CD4 T cells and Raji cells; experiment: Raji CD4 T Cell IL2 Assay; assay type: cell-based
human DGKζ = human DGKζ (Homo sapiens (Human), UniProt Q13574); experiment: DGKζ assay (detergent/lipid micelle substrate); assay type: biochemical; conditions: detergent/lipid micelle substrate; read-out: DGKζ IC50
Sequence of human DGKζ (Q13574 other isoform, or with tags, fused parts or gaps): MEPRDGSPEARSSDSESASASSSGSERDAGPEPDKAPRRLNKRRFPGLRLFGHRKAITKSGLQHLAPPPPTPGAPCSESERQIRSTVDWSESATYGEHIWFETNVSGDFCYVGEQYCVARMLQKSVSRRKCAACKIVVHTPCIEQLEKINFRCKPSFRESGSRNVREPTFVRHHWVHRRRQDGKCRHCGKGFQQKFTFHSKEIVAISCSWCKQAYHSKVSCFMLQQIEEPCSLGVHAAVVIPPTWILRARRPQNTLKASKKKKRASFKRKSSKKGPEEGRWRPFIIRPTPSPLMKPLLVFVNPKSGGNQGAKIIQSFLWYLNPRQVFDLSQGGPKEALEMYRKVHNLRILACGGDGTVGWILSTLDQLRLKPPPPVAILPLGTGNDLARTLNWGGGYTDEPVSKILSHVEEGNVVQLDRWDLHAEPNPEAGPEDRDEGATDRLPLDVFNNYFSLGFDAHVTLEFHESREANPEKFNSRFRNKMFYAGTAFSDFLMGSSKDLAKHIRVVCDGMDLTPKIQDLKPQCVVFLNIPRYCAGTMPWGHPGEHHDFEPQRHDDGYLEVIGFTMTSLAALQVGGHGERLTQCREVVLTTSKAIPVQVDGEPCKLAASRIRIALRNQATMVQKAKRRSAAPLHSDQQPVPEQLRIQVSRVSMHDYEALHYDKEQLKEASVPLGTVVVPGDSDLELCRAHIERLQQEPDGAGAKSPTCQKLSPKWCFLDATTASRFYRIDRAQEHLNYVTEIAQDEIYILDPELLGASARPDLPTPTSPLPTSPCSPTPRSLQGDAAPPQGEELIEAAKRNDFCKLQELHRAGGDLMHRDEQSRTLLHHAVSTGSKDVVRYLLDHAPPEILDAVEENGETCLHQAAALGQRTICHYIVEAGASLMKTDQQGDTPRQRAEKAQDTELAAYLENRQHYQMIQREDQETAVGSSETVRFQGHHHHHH
Summary of the method: as §1

Sequence of human DGKα (P23743 other isoform, or with tags, fused parts or gaps): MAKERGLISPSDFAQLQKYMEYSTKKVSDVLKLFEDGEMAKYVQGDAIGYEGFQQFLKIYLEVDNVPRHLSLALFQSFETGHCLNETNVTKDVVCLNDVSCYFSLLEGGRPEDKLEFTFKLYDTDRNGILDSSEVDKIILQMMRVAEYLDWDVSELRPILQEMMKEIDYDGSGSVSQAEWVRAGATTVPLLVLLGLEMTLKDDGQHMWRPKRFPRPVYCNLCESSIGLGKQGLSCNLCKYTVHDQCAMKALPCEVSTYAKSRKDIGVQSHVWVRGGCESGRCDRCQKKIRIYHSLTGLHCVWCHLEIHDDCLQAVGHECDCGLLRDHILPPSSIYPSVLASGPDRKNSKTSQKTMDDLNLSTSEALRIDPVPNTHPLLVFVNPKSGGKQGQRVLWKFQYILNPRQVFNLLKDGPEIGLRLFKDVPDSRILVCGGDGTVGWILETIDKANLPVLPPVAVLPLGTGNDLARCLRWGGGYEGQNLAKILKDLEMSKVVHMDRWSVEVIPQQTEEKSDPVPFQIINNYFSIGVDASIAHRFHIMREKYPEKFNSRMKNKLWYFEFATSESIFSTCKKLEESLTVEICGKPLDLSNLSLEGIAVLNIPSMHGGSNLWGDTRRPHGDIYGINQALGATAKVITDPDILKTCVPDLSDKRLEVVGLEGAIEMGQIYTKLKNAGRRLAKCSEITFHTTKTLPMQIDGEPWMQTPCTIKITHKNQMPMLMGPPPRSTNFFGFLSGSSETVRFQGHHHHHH

Structure (SMILES) | IC50 (human DGKα) [nM] | IC50 ([1]; Homo sapiens, Raji) [nM] | IC50 (human DGKζ) [µM] | IC50 [1] [nM]
Cn1c(=O)c(C#N)c(N2CCN(Cc3ccc(F)c(O)c3)CC2)c2nc(Cl)ccc21 [Example 348, 6-chloro-4-{4-[(4-fluoro-3-hydroxyphenyl)methyl]piperazin-1-yl}-1-methyl-2-oxo-1,2-dihydro-1,5-naphthyridine-3-carbonitrile] | 220 | 1300 | 140 | –
Cn1c(=O)c(C#N)c(N2CCN(C3(c4ccc(F)cc4)CC3)CC2)c2nc(Cl)ccc21 [Example 421, 6-chloro-4-{4-[1-(4-fluorophenyl)cyclopropyl]piperazin-1-yl}-1-methyl-2-oxo-1,2-dihydro-1,5-naphthyridine-3-carbonitrile] | 69000 | 2800 | > 240 | –
Cn1c(=O)c(C#N)c(N2CCN(C(CO)c3ccc(F)cc3)CC2)c2nc(Br)ccc21 (stereo not drawn) [Example 31, 6-bromo-4-{4-[1-(4-fluorophenyl)-2-hydroxyethyl]piperazin-1-yl}-1-methyl-2-oxo-1,2-dihydro-1,5-naphthyridine-3-carbonitrile] | 1200 | 1800 | > 240 | –
Cn1c(=O)c(C#N)c(N2CCN(Cc3ccccc3O)CC2)c2nc(C#N)ccc21 [Example 317, 8-{4-[(2-hydroxyphenyl)methyl]piperazin-1-yl}-5-methyl-6-oxo-5,6-dihydro-1,5-naphthyridine-2,7-dicarbonitrile] | 160 | 290 | 34 | –
Cn1c(=O)c(C#N)c(N2CCN(Cc3cc(F)cc(Cl)c3)CC2)c2nc(Cl)ccc21 [Example 324, 6-chloro-4-{4-[(3-chloro-5-fluorophenyl)methyl]piperazin-1-yl}-1-methyl-2-oxo-1,2-dihydro-1,5-naphthyridine-3-carbonitrile] | 190 | 350 | > 240 | –
COc1cccc(O)c1CN1CCN(c2c(C#N)c(=O)n(C)c3ccc(Br)nc23)CC1 [Example 314, 6-bromo-4-{4-[(2-hydroxy-6-methoxyphenyl)methyl]piperazin-1-yl}-1-methyl-2-oxo-1,2-dihydro-1,5-naphthyridine-3-carbonitrile] | 170 | 250 | 82 | –
Cn1c(=O)c(C#N)c(N2CCN(Cc3ccc(Cl)cc3Cl)CC2)c2nc(Cl)ccc21 [Example 310, 6-chloro-4-{4-[(2,4-dichlorophenyl)methyl]piperazin-1-yl}-1-methyl-2-oxo-1,2-dihydro-1,5-naphthyridine-3-carbonitrile] | 970 | 220 | > 240 | –
Cn1c(=O)c([N+](=O)[O-])c(N2CCN(C(c3ccc(F)cc3)c3ccccc3O)CC2)c2nc(Br)ccc21 (stereo not drawn) [Example 70, 6-bromo-4-(4-((4-fluorophenyl)(2-hydroxyphenyl)methyl)piperazin-1-yl)-1-methyl-3-nitro-1,5-naphthyridin-2(1H)-one] | 130 | 8.9 | 3.3 | –
C#CCn1c(=O)c(C#N)c(N2CCN(Cc3ccccc3C(F)F)CC2)c2nc(Br)ccc21 [Example 64, 6-bromo-4-(4-(2-(difluoromethyl)benzyl)piperazin-1-yl)-2-oxo-1-(prop-2-yn-1-yl)-1,2-dihydro-1,5-naphthyridine-3-carbonitrile] | 2700 | 55000 | 14 | –
COc1ccc(CN2CCN(c3c(C#N)c(=O)n(C)c4ccc(Cl)nc34)CC2)cc1 [Example 341, 6-chloro-4-{4-[(4-methoxyphenyl)methyl]piperazin-1-yl}-1-methyl-2-oxo-1,2-dihydro-1,5-naphthyridine-3-carbonitrile] | 320 | 730 | > 240 | –
Cn1c(=O)c(C#N)c(N2CCN(Cc3cccc(Cl)c3)CC2)c2nc(Cl)ccc21 [Example 302, 6-chloro-4-{4-[(3-chlorophenyl)methyl]piperazin-1-yl}-1-methyl-2-oxo-1,2-dihydro-1,5-naphthyridine-3-carbonitrile] | 610 | 180 | > 81 | –
Cn1c(=O)c(C#N)c(N2CCN(Cc3cc(F)ccc3F)CC2)c2nc(Cl)ccc21 [Example 318, 6-chloro-4-{4-[(2,5-difluorophenyl)methyl]piperazin-1-yl}-1-methyl-2-oxo-1,2-dihydro-1,5-naphthyridine-3-carbonitrile] | 850 | 290 | 140 | –
COCCn1c(=O)c([N+](=O)[O-])c(N2CCN(C(c3ccccc3)c3ccccc3)CC2)c2ncccc21 [Example 244, 4-[4-(diphenylmethyl)piperazin-1-yl]-1-(2-methoxyethyl)-3-nitro-1,2-dihydro-1,5-naphthyridin-2-one] | 32000 | 690 | > 81 | –
Cn1c(=O)c(C#N)c(N2CCN(Cc3cc(OC(F)(F)F)ccc3O)CC2)c2nc(Br)ccc21 [Example 270, 6-bromo-4-(4-{[2-hydroxy-5-(trifluoromethoxy)phenyl]methyl}piperazin-1-yl)-1-methyl-2-oxo-1,2-dihydro-1,5-naphthyridine-3-carbonitrile] | 190 | 59 | > 240 | –
COc1ccccc1CN1CCN(c2c(C#N)c(=O)n(C)c3ccc(Br)nc23)CC1 [Example 297, 6-bromo-4-{4-[4(2-methoxyphenyl)methyl]piperazin-1-yl}-1-methyl-2-oxo-1,2-dihydro-1,5-naphthyridine-3-carbonitrile] | 890 | 160 | > 240 | –
Cn1c(=O)c(C#N)c(N2CCN(Cc3c(O)cccc3F)CC2)c2nc(Cl)ccc21 [Example 280, 6-chloro-4-{4-[(2-fluoro-6-hydroxyphenyl)methyl]piperazin-1-yl}-1-methyl-2-oxo-1,2-dihydro-1,5-naphthyridine-3-carbonitrile] | 76 | 92 | > 240 | –
O=c1c([N+](=O)[O-])c(N2CCN(C(c3ccccc3)c3ccccc3)CC2)c2ncccc2n1CCC=C(F)F [Example 186, 4-(4-benzhydrylpiperazin-1-yl)-1-(4,4-difluorobut-3-en-1-yl)-3-nitro-1,5-naphthyridin-2(1H)-one] | > 240000 | 3000 | > 240 | –
Cc1ccc(CN2CCN(c3c(C#N)c(=O)n(C)c4ccc(Cl)nc34)CC2)cc1O [Example 328, 6-chloro-4-{4-[(3-hydroxy-4-methylphenyl)methyl]piperazin-1-yl}-1-methyl-2-oxo-1,2-dihydro-1,5-naphthyridine-3-carbonitrile] | 1000 | 440 | 120 | –
Cn1c(=O)c(C#N)c(N2CCN(Cc3ccccc3OC(F)(F)F)CC2)c2nc(Cl)ccc21 [Example 285, 6-chloro-1-methyl-2-oxo-4-(4-{[2-(trifluoromethoxy)phenyl]methyl}piperazin-1-yl)-1,2-dihydro-1,5-naphthyridine-3-carbonitrile] | 910 | 100 | > 240 | –
COc1ccccc1C(c1ccc(F)cc1)N1CCN(c2c(C#N)c(=O)n(CC3CC3)c3ccc(Br)nc23)CC1 (single isomer, unassigned) [Example 159, 6-bromo-1-(cyclopropylmethyl)-4-(4-((4-fluorophenyl)(2-methoxyphenyl)methyl)piperazin-1-yl)-2-oxo-1,2-dihydro-1,5-naphthyridine-3-carbonitrile] | 120000 | 2000 | > 240 | –
Cn1c(=O)c(C#N)c(N2CCN(Cc3cccc(F)c3O)CC2)c2nc(Cl)ccc21 [Example 306, 6-chloro-4-{4-[(3-fluoro-2-hydroxyphenyl)methyl]piperazin-1-yl}-1-methyl-2-oxo-1,2-dihydro-1,5-naphthyridine-3-carbonitrile] | 200 | 210 | > 240 | –
C#CCOc1ccccc1C(c1ccc(F)cc1)N1CCN(c2c(C#N)c(=O)n(C)c3ccc(Br)nc23)CC1 (single isomer, unassigned) [Example 7, 6-bromo-4-{4-[(4-fluorophenyl) [2-(prop-2-yn-1-yloxy)phenyl]methyl]piperazin-1-yl}-1-methyl-2-oxo-1,2-dihydro-1,5-naphthyridine-3-carbonitrile] | 500 | – | 120 | 75
COCCOCCCn1c(=O)c([N+](=O)[O-])c(N2CCN(C(c3ccccc3)c3ccccc3)CC2)c2ncccc21 [Example 189, 4-(4-benzhydrylpiperazin-1-yl)-1-(3-(2-methoxyethoxy)propyl)-3-nitro-1,5-naphthyridin-2(1H)-one] | 130000 | 7300 | > 240 | –
Cn1c(=O)c(C#N)c(N2CCN(Cc3ccccc3)CC2)c2nc(Cl)ccc21 [Example 343, 4-(4-benzylpiperazin-1-yl)-6-chloro-1-methyl-2-oxo-1,2-dihydro-1,5-naphthyridine-3-carbonitrile] | 68 | 810 | > 81 | –
Cn1c(=O)c(C#N)c(N2CCN(Cc3ccccc3NC(=O)Nc3ccccc3)CC2)c2nc(Br)ccc21 [Example 214, 1-(2-((4-(6-bromo-3-cyano-1-methyl-2-oxo-1,2-dihydro-1,5-naphthyridin-4-yl)piperazin-1-yl)methyl)phenyl)-3-phenylurea] | 3100 | 550 | > 81 | –
Cn1c(=O)c(C#N)c(N2CCN(Cc3ccc(F)cc3F)CC2)c2nc(Cl)ccc21 [Example 350, 6-chloro-4-{4-[(2,4-difluorophenyl)methyl]piperazin-1-yl}-1-methyl-2-oxo-1,2-dihydro-1,5-naphthyridine-3-carbonitrile] | 1200 | 1500 | > 81 | –
